Test results published in ChEMBL document CHEMBL3091428, “Synthesis and initial biological evaluation of substituted 1-phenylamino-2-thio-4,5-dimethyl-1H-imidazole derivatives” (Bioorg Med Chem Lett, 2013).
Converted amounts (≈) assume the structure as drawn.

Columns and labels:
TK-10 = test: Cytotoxicity against human TK10 cells assessed as cell growth after 48 hrs by SRB assay relative to control; format: functional
RXF 393 = test: Cytotoxicity against human RXF393 cells assessed as cell growth after 48 hrs by SRB assay relative to control; format: functional
SN12C = test: Cytotoxicity against human SN12C cells assessed as cell growth after 48 hrs by SRB assay relative to control; format: functional
CAKI-1 = test: Cytotoxicity against human Caki1 cells assessed as cell growth after 48 hrs by SRB assay relative to control; format: functional
ACHN = test: Cytotoxicity against human ACHN cells assessed as cell growth after 48 hrs by SRB assay relative to control; format: functional
786-0 = test: Cytotoxicity against human 786-0 cells assessed as cell growth after 48 hrs by SRB assay relative to control; format: functional
SK-OV-3 = test: Cytotoxicity against human SKOV3 cells assessed as cell growth after 48 hrs by SRB assay relative to control; format: functional
[1] = Cytotoxicity against human NCI-ADR-RES cells assessed as cell growth after 48 hrs by SRB assay relative to control; format: functional
OVCAR-8 = test: Cytotoxicity against human OVCAR8 cells assessed as cell growth after 48 hrs by SRB assay relative to control; format: functional
[2] = Cytotoxicity against human OVCAR4 cells assessed as cell growth after 48 hrs by SRB assay relative to control; format: functional, OVCAR-4
UACC-62 = test: Cytotoxicity against human UACC62 cells assessed as cell growth after 48 hrs by SRB assay relative to control; format: functional
SK-MEL-5 = test: Cytotoxicity against human SK-MEL-5 cells assessed as cell growth after 48 hrs by SRB assay relative to control; format: functional
SK-MEL-2 = test: Cytotoxicity against human SK-MEL-2 cells assessed as cell growth after 48 hrs by SRB assay relative to control; format: functional
M14 = test: Cytotoxicity against human M14 cells assessed as cell growth after 48 hrs by SRB assay relative to control; format: functional
MDA-MB-435 = test: Cytotoxicity against human MDA-MB-435 cells assessed as cell growth after 48 hrs by SRB assay relative to control; format: functional
Malme-3M = test: Cytotoxicity against human MALME-3M cells assessed as cell growth after 48 hrs by SRB assay relative to control; format: functional
LOX IMVI = test: Cytotoxicity against human LOXIMVI cells assessed as cell growth after 48 hrs by SRB assay relative to control; format: functional
SNB-75 = test: Cytotoxicity against human SNB75 cells assessed as cell growth after 48 hrs by SRB assay relative to control; format: functional
U-251 = test: Cytotoxicity against human U251 cells assessed as cell growth after 48 hrs by SRB assay relative to control; format: functional
SF-539 = test: Cytotoxicity against human SF539 cells assessed as cell growth after 48 hrs by SRB assay relative to control; format: functional
SF-295 = test: Cytotoxicity against human SF295 cells assessed as cell growth after 48 hrs by SRB assay relative to control; format: functional
SF-268 = test: Cytotoxicity against human SF268 cells assessed as cell growth after 48 hrs by SRB assay relative to control; format: functional
KM12 = test: Cytotoxicity against human KM12 cells assessed as cell growth after 48 hrs by SRB assay relative to control; format: functional
HT-29 = test: Cytotoxicity against human HT-29 cells assessed as cell growth after 48 hrs by SRB assay relative to control; format: functional
HCT-116 = test: Cytotoxicity against human HCT116 cells assessed as cell growth after 48 hrs by SRB assay relative to control; format: functional
HCT-15 = test: Cytotoxicity against human HCT15 cells assessed as cell growth after 48 hrs by SRB assay relative to control; format: functional
HCC 2998 = test: Cytotoxicity against human HCC2998 cells assessed as cell growth after 48 hrs by SRB assay relative to control; format: functional
COLO 205 = test: Cytotoxicity against human COLO205 cells assessed as cell growth after 48 hrs by SRB assay relative to control; format: functional
NCI-H322M = test: Cytotoxicity against human NCI-H322M cells assessed as cell growth after 48 hrs by SRB assay relative to control; format: functional
NCI-H23 = test: Cytotoxicity against human NCI-H23 cells assessed as cell growth after 48 hrs by SRB assay relative to control; format: functional
NCI-H226 = test: Cytotoxicity against human NCI-H226 cells assessed as cell growth after 48 hrs by SRB assay relative to control; format: functional
HOP-92 = test: Cytotoxicity against human HOP92 cells assessed as cell growth after 48 hrs by SRB assay relative to control; format: functional
A549 = test: Cytotoxicity against human A549 cells assessed as cell growth after 48 hrs by SRB assay relative to control; format: functional
RPMI-8226 = test: Cytotoxicity against human RPMI8226 cells assessed as cell growth after 48 hrs by SRB assay relative to control; format: functional
K562 = test: Cytotoxicity against human K562 cells assessed as cell growth after 48 hrs by SRB assay relative to control; format: functional
HL-60(TB) = test: Cytotoxicity against human HL-60(TB) cells assessed as cell growth after 48 hrs by SRB assay relative to control; format: functional
CCRF-CEM = test: Cytotoxicity against human CCRF-CEM cells assessed as cell growth after 48 hrs by SRB assay relative to control; format: functional
Listeria monocytogenes = test: Antimicrobial activity against Listeria monocytogenes ATCC 19115 after 24 hrs by broth microdilution method; format: functional; conditions: ATCC 19115, 24 h
Staphylococcus aureus = test: Antimicrobial activity against Staphylococcus aureus ATCC 25923 after 24 hrs by broth microdilution method; format: functional; conditions: ATCC 25923, 24 h
Enterococcus faecalis [3] = test: Antimicrobial activity against Enterococcus faecalis ATCC 51299 after 24 hrs by broth microdilution method; format: functional; conditions: ATCC 51299, 24 h
Enterococcus faecalis [4] = test: Antimicrobial activity against Enterococcus faecalis ATCC 29212 after 24 hrs by broth microdilution method; format: functional; conditions: ATCC 29212, 24 h
Klebsiella pneumoniae = test: Antimicrobial activity against Klebsiella pneumoniae ATCC 13883 after 24 hrs by broth microdilution method; format: functional; conditions: ATCC 13883, 24 h
Escherichia coli [5] = test: Antimicrobial activity against Escherichia coli ATCC 25922 after 24 hrs by broth microdilution method; format: functional; conditions: ATCC 25922, 24 h
Escherichia coli [6] = test: Antimicrobial activity against Escherichia coli ATCC 35218 after 24 hrs by broth microdilution method; format: functional; conditions: ATCC 35218, 24 h
T47D = test: Cytotoxicity against human T47D cells assessed as cell growth after 48 hrs by SRB assay relative to control; format: functional
BT-549 = test: Cytotoxicity against human BT549 cells assessed as cell growth after 48 hrs by SRB assay relative to control; format: functional
MCF7 = test: Cytotoxicity against human MCF7 cells assessed as cell growth after 48 hrs by SRB assay relative to control; format: functional
DU-145 = test: Cytotoxicity against human DU145 cells assessed as cell growth after 48 hrs by SRB assay relative to control; format: functional
PC-3 = test: Cytotoxicity against human PC3 cells assessed as cell growth after 48 hrs by SRB assay relative to control; format: functional

Cc1nc(SCC(=O)c2ccccc2)n(Nc2ccccc2)c1C
Activity (TK-10): 127.6% | Activity (RXF 393): 103.1% | Activity (SN12C): 99.9% | Activity (CAKI-1): 88.11% | Activity (ACHN): 106.6% | Activity (786-0): 106.4% | Activity (SK-OV-3): 97.79% | Activity [1]: 96.87% | Activity (OVCAR-8): 99.29% | Activity [2]: 105.2% | Activity (UACC-62): 102.6% | Activity (SK-MEL-5): 99.8% | Activity (SK-MEL-2): 97.16% | Activity (M14): 101.1% | Activity (MDA-MB-435): 97.36% | Activity (Malme-3M): 103.5% | Activity (LOX IMVI): 102.1% | Activity (SNB-75): 108.2% | Activity (U-251): 97.26% | Activity (SF-539): 104.4% | Activity (SF-295): 86.98% | Activity (SF-268): 101.9% | Activity (KM12): 104.6% | Activity (HT-29): 97.65% | Activity (HCT-116): 86.93% | Activity (HCT-15): 99.3% | Activity (HCC 2998): 110.5% | Activity (COLO 205): 110.9% | Activity (NCI-H322M): 90.31% | Activity (NCI-H23): 93.43% | Activity (NCI-H226): 99.07% | Activity (HOP-92): 91.79% | Activity (A549): 99.16% | Activity (RPMI-8226): 102.2% | Activity (K562): 89.68% | Activity (HL-60(TB)): 91% | Activity (CCRF-CEM): 90.27% | MIC (Listeria monocytogenes): 800 µg/mL (≈ 2370 µM) | MIC (Staphylococcus aureus): 800 µg/mL (≈ 2370 µM) | MIC (Enterococcus faecalis [3]): 800 µg/mL (≈ 2370 µM) | MIC (Enterococcus faecalis [4]): 800 µg/mL (≈ 2370 µM) | MIC (Klebsiella pneumoniae): 800 µg/mL (≈ 2370 µM) | MIC (Escherichia coli [5]): 800 µg/mL (≈ 2370 µM) | MIC (Escherichia coli [6]): 800 µg/mL (≈ 2370 µM) | Activity (T47D): 85.54% | Activity (BT-549): 88.93% | Activity (MCF7): 96.9% | Activity (DU-145): 109.3% | Activity (PC-3): 102%

COc1ccc(C(=O)CSc2nc(C)c(C)n2Nc2ccccc2)cc1
Activity (TK-10): 109.3% | Activity (RXF 393): 85.48% | Activity (SN12C): 98.88% | Activity (CAKI-1): 81.41% | Activity (ACHN): 99.05% | Activity (786-0): 90.03% | Activity (SK-OV-3): 93.26% | Activity [1]: 83.61% | Activity (OVCAR-8): 100.7% | Activity [2]: 92.83% | Activity (UACC-62): 90.38% | Activity (SK-MEL-5): 100.7% | Activity (SK-MEL-2): 94.21% | Activity (M14): 91.19% | Activity (MDA-MB-435): 95.25% | Activity (Malme-3M): 101.4% | Activity (LOX IMVI): 104.8% | Activity (SNB-75): 93.05% | Activity (U-251): 93.77% | Activity (SF-539): 100.8% | Activity (SF-295): 90.39% | Activity (SF-268): 104.5% | Activity (KM12): 97.97% | Activity (HT-29): 94.25% | Activity (HCT-116): 96.71% | Activity (HCT-15): 88.63% | Activity (HCC 2998): 93.49% | Activity (COLO 205): 100.5% | Activity (NCI-H322M): 82.37% | Activity (NCI-H23): 88.38% | Activity (NCI-H226): 92.08% | Activity (HOP-92): 82.74% | Activity (A549): 97.35% | Activity (RPMI-8226): 94.68% | Activity (K562): 87.79% | Activity (HL-60(TB)): 87.13% | Activity (CCRF-CEM): 89.68% | MIC (Listeria monocytogenes): 800 µg/mL (≈ 2180 µM) | MIC (Staphylococcus aureus): 800 µg/mL (≈ 2180 µM) | MIC (Enterococcus faecalis [3]): 800 µg/mL (≈ 2180 µM) | MIC (Enterococcus faecalis [4]): 400 µg/mL (≈ 1090 µM) | MIC (Klebsiella pneumoniae): 800 µg/mL (≈ 2180 µM) | MIC (Escherichia coli [5]): 400 µg/mL (≈ 1090 µM) | MIC (Escherichia coli [6]): 800 µg/mL (≈ 2180 µM) | Activity (T47D): 71.62% | Activity (BT-549): 84.66% | Activity (MCF7): 105.7% | Activity (DU-145): 111.6% | Activity (PC-3): 89.35%

Cc1nc(SCC(=O)c2ccc(Cl)cc2)n(Nc2ccccc2)c1C
Activity (TK-10): 117.2% | Activity (RXF 393): 96.88% | Activity (SN12C): 93.18% | Activity (CAKI-1): 78.89% | Activity (ACHN): 102.7% | Activity (786-0): 97.67% | Activity (SK-OV-3): 102.4% | Activity [1]: 93.39% | Activity (OVCAR-8): 96.67% | Activity [2]: 93.89% | Activity (UACC-62): 90.32% | Activity (SK-MEL-5): 96.98% | Activity (SK-MEL-2): 91.02% | Activity (M14): 107.4% | Activity (MDA-MB-435): 99.36% | Activity (Malme-3M): 97.11% | Activity (LOX IMVI): 101.4% | Activity (SNB-75): 94.11% | Activity (U-251): 90.68% | Activity (SF-539): 103.9% | Activity (SF-295): 89.88% | Activity (SF-268): 103.9% | Activity (KM12): 105% | Activity (HT-29): 99.26% | Activity (HCT-116): 90.7% | Activity (HCT-15): 92.65% | Activity (HCC 2998): 106.9% | Activity (COLO 205): 96.15% | Activity (NCI-H322M): 88.63% | Activity (NCI-H23): 89.25% | Activity (NCI-H226): 95.15% | Activity (HOP-92): 76.51% | Activity (A549): 86.67% | Activity (RPMI-8226): 92.33% | Activity (K562): 88.1% | Activity (HL-60(TB)): 92.02% | Activity (CCRF-CEM): 81.64% | MIC (Listeria monocytogenes): 400 µg/mL (≈ 1080 µM) | MIC (Staphylococcus aureus): 800 µg/mL (≈ 2150 µM) | MIC (Enterococcus faecalis [3]): 400 µg/mL (≈ 1080 µM) | MIC (Enterococcus faecalis [4]): 200 µg/mL (≈ 538 µM) | MIC (Klebsiella pneumoniae): 800 µg/mL (≈ 2150 µM) | MIC (Escherichia coli [5]): 800 µg/mL (≈ 2150 µM) | MIC (Escherichia coli [6]): 400 µg/mL (≈ 1080 µM) | Activity (T47D): 79.51% | Activity (BT-549): 104.7% | Activity (MCF7): 88.08% | Activity (DU-145): 115.8% | Activity (PC-3): 91.86%
